Read-outs that look alike come from different tables or passages of the source.
Legend:
cortical neurons = assay: Excitotoxicity protection in primary cortical cell cultures (MTT test); assay type: cell-based, rat; conditions: 6 hour incubation
Experimental: Sixteen-day-old embryos from Wistar rats were removed and the cortex dissected. […] After four days of culture, half of the medium was replaced by minimum essential medium supplemented with 5% horse serum and 2 mM glutamine. On the same day, 10 μM 5-fluoro-2-deoxyuridine, an antimitotic agent, was added. After 7 and 11 days of culture, half of the medium was replaced by conditioned medium composed of MEM supplemented with 5% horse serum and 2 mM glutamine; this medium was passed overnight on a layer of cortical astrocytes before use.
Toxicity was measured with an MTT test.

rat brain granular cells = conditions: for protection of brain granular cells: 6 hour incubation, MTT; for protective effect on neuron survival: neurons cotreated with PDE4 inhibitor, both excitotoxicity inducers (NMDA/serine and kainate), FIGS. 2 to 10
[1] = test system: Amyotrophic Lateral Sclerosis (ALS); conditions: ALS patients; cited from earlier work
[2] = NMDA/serine treatment (20 μM NMDA + 10 μM D-serine)
[3] = kainate-induced toxicity (50 μM kainate)
[4] = NMDA/serine treatment (100 μM NMDA + 10 μM D-serine)

Compound	protective effect on cortical neurons (cortical neurons; [2]) [%]	protective effect on cortical neurons (cortical neurons; [3]) [%]	protection of brain granular cells (rat brain granular cells; [4]) [%]	protection of brain granular cells (rat brain granular cells; [3]) [%]	protective effect on neuron survival (rat brain granular cells)	improvement in the measures of muscular strength [1]
CCOC(=O)c1cnc2c(cnn2CC)c1NN=C(C)C [etazolate]	33	25	60	57	dose-dependent protective effect	
Nc1nc2ccc(OC(F)(F)F)cc2s1 [Riluzole]						does not provide improvement
CC(=O)CCCCn1c(=O)c2c(ncn2C)n(C)c1=O [pentoxifylline]	50	66	43	33	dose-dependent protective effect	
